Where no end group is shown, it is not given here. [ ]: non-standard residue; d: D form. pY = N[C@@H](Cc1ccc(OP(=O)(O)O)cc1)C(=O)O
Columns and labels:
[1] = test system: IL-6/gp130/STAT3 target genes; assay: RT-PCR of IL-6/gp130/STAT3 acute-phase target genes in IL-6 stimulated HepG2 cells; type: cell-based, human; conditions: 1.0 μM, 24 h upon IL-6 stimulation
Procedure: (§1) Human hepatoma cells HepG2 were treated as indicated with 1.0 μM gp130-peptide (i.e., IL6-65 represents phosphorothioate elongated SEQ ID NO:4, IL6-96 represents phosphorothioate elongated SEQ ID NO:8, and IL-63 represents phosphorothioate elongated SEQ ID NO:9) for 24 h upon IL-6 stimulation. mRNA was isolated and target gene expression was assessed by RT-PCR. SD shown; T-test: *) P<0.05, **) P<0.01, ***) P<0.001.
Interleukin-6 (IL-6) signaling feeds intracellular STAT3 activity by binding to the extracellular domain of IL-6Ralpha (gp80) recruiting the signaling co-receptors IL-6Rbeta (gp130). IL-6 engagement to these receptors leads to the phosphorylation of 6 tyrosine residues in the cytoplasmic tail of gp130; 3 of those phospho-tyrosines (pY767, pY905 and pY915) serve as the major docking sites recognized by STAT3s SH2 domain initiating STAT3 intracellular signaling. Applicants disclose these three gp130-peptides modified by phosphorothioated ssDNA extension (FIG. 13) considerably reduce expression of a repertoire of IL-6/gp130/STAT3 target genes orchestrating the acute-phase inflammatory response (FIG. 15) once they undergo cellular internalization (FIG. 14).

[2] = test system: survivin (BIRC5) and BclXL (BCL2L1); assay: RT-PCR of cancer cell survival genes in HepG2 cells; type: cell-based, human; conditions: 1.0 μM, 24 h upon IL-6 stimulation
Procedure: as §1, with “T-test:” for “T-test: *) P<0.05, **) P<0.01,”

pY-STAT3 = pY-STAT3 Western blot in IL-6 stimulated HepG2 cells; type: cell-based, human; conditions: 1.0 μM, 30 min prior to IL-6 stimulation
Procedure: FIG. 16: gp130-peptide treatment of cancer cells inhibits pY-STAT3 activation. Human hepatoma cells HepG2 were treated as indicated with 1.0 μM gp130-peptide peptide (i.e., 2263165 is phosphorothioate elongated SEQ ID NO:4, 1209196 is phosphorothioate elongated SEQ ID NO:8, and 2263163 is phosphorothioate elongated SEQ ID NO:9) for either 30 min prior to IL-6 stimulation. Whole cell lysates were subjected to electrophoretic protein separation and STAT3 activity was assessed by Western blot detecting phospho-tyrosine. Total STAT3 protein staining was included as a loading control.
Human hepatoma cells HepG2 were treated as indicated with 1.0 uM gp130-peptide for either 30 min prior to IL-6 stimulation. Whole cell lysates were subjected to electrophoretic protein separation and STAT3 activity was assessed by Western blot detecting phospho-tyrosine. Total STAT3 protein staining was included as a loading control.

[3] = test system: IL-6/gp130 signaling; EGFR signaling; assay: IL-6 versus EGF stimulated signaling in HepG2 cells (STAT3 and MAPK p42/44 Western blot); type: cell-based, human; conditions: 1.0 μM, 30 min prior to IL-6 or EGF stimulation
Procedure: Human hepatoma cells HepG2 were treated as indicated with 1.0 μM gp130-peptide peptide (i.e., 65 is phosphorothioate elongated SEQ ID NO:4, 96 is phosphorothioate elongated SEQ ID NO:8, and 63 is phosphorothioate elongated SEQ ID NO:9) for either 30 min prior to IL-6 or EGF stimulation. Whole cell lysates were subjected to electrophoretic protein separation and STAT3 as well as MAPK (p42/44) activity was assessed by Western blot. Total STAT3 and MAPK (p42/44) protein staining was included as a loading control.

[4] = test system: W76964 (mouse pancreatic cancer cell line) cells; assay: Cell penetration in W76964 cells (flow cytometry); type: cell-based; conditions: 1×10^6 cells, 10 μg, 2 hours at 37° C.
Procedure: FIGS. 29A-29B: Combination treatment of cell-penetrating Gp130-inhibitory peptide (i.e., Gp130 peptide) and c-MYC-inhibitory peptide (i.e., c-MYC binding peptide) (SEQ ID NO:10) suppresses tumor growth in a syngeneic mouse model of pancreatic cancer. FIG. 29A. […] 1×10^6 cells were incubated with 10 μg of PS-GP130- or PS-c-MYC-peptide for 2 hours at 37° C. […] FIG. 29B. W76964 cells were engrafted in C57BL/6 mice to generate tumors. After tumor size reached approximately 80 mm^3, PO-Gp130 or PS-GP130 was mixed with PS-c-MYC-inhibitory peptide (1:1 ratio) to treat mice systemically (i.v.) at 20 μg every other day. Tumor size was measured by a caliber. Tumor volume was calculated (V=(L×W×W)), where V is tumor volume, W is tumor width, L is tumor length. When some tumors start to reach 600 mm^3, all groups of mice were euthanized at the same time using protocols approved by IACUC of City of Hope. N=6 as indicated.
1×10^6 cells were incubated with 10 μg of PS-GP130- or PS-c-MYC-peptide for 2 hours at 37° C. […] W76964 cells were engrafted in C57BL/6 mice to generate tumors (FIG. 29B). […] Tumor size was measured by a caliber. Tumor volume was calculated (V=(L×W×W)), where V is tumor volume, W is tumor width, L is tumor length. […]

Substance	expression of IL-6/gp130/STAT3 target genes of the acute-phase inflammatory response [1]	expression of survival genes survivin (BIRC5) and BclXL (BCL2L1) [2]	pY-STAT3 levels / STAT3 activity (pY-STAT3)	specificity: IL-6/gp130 signaling versus EGF/EGFR signaling [3]	cell penetration, flow cytometry [4]
PS-1209196: phosphorothioate elongated SEQ ID NO:8, gp130 peptide phosphorylated at tyrosine 905, MPKSpYLPQTV (MPKS[pY]LPQTV; also: phosphorothioate elongation)	significantly reduces	significantly reduces	inhibitory efficacy	specifically inhibits IL-6/gp130 signaling but not EGFR signaling	
PS-2263163: phosphorothioate elongated SEQ ID NO:9, gp130 peptide phosphorylated at tyrosine 915, RQGGpYMPQ (RQGG[pY]MPQ; also: phosphorothioate elongation)	significantly reduces	significantly reduces	inhibitory efficacy	specifically inhibits IL-6/gp130 signaling but not EGFR signaling	
PS-2263165: phosphorothioate elongated SEQ ID NO:4, gp130 peptide phosphorylated at tyrosine 767, VHSGpYRHQVPS (VHSG[pY]RHQVPS; also: phosphorothioate elongation)	significantly reduces	significantly reduces	inhibitory efficacy	specifically inhibits IL-6/gp130 signaling but not EGFR signaling	
PS-c-MYC-inhibitory peptide: phosphorothioate-conjugated c-MYC binding peptide SEQ ID NO:10 KNDTHQQDIDDLK (also: phosphorothioate-conjugated)					cell penetration

Reference: US11541121B2, “Phosphorothioate-conjugated peptides and methods of using the same” (CITY OF HOPE, priority 2017, dated 2023)
